Assay results taken from publication PMC11729362, “Icariside II Preparation from Icariin Separated from Epimedium Herbal Extract Powder by a Special Icariin Glycosidase” (Journal of Microbiology and Biotechnology, 2024).

Tested on: T1, special icariin glycosidase
T1 construct: gene icariin 7-O-glucosidase; native enzyme purified from culture supernatant (methanol precipitation, DEAE-cellulose DE-52); about 75 kDa by SDS-PAGE
Assay: Lineweaver-Burk; HPLC and TLC of products and substrate
Assay type: biochemical, Aspergillus sp. y48
Settings: 45 °C, 9 h reaction, 0.4-2.0 mmol/L icariin; purified free enzyme

Km: 3.55 mM
Compound: COc1ccc(-c2oc3c(CC=C(C)C)c(O[C@@H]4O[C@H](CO)[C@@H](O)[C@H](O)[C@H]4O)cc(O)c3c(=O)c2O[C@@H]2O[C@@H](C)[C@H](O)[C@@H](O)[C@H]2O)cc1 [icariin]
